Measured values from US20140341939A1 (NATIONAL UNIVERSITY CORPORATION KOCHI UNIVERSITY, priority 2011, published 2014).
“Also recorded” adds a separate entry of the source. Read-outs that look alike come from different tables or passages of the source. Values belong to the molecule of their own block, whether it stands above or below them. Where a SMILES comes first, the peptide text is derived from it. Where no end group is shown, it is not given here. [ ]: non-standard residue; d: D form. The star is where a group is joined. Biotin = O=C1N[C@H]2[C@H](CS[C@H]2CCCCC(=O)*)N1; βAla = NCCC(=O)O

Legend:
[1] = tested on: serum peptidase; assay: Degradation of peptide in 10% fresh mouse serum (HPLC of remaining peptide); details: for digestion resistance to serum peptidases (in words): up to 16 hr (FIG. 21)
Method: (§1) Peptide was digested in TBS containing 10% fresh mouse serum or fresh human serum. After incubation at 37° C. for a given time, 1% trifluoro acid was added to remove various serum proteins by precipitation. After short centrifugation, the soluble fraction was analyzed by reversed-phase HPLC using a C18 analysis column. To normalize variation in the total amount of the peptide loaded for each HPLC, the peak of non-protein components contained in the serum, which is absorbed at the wavelength of 220 nm, was used as an internal control. The peak area of undigested peptides was quantitatively monitored by Chromatopac C-R8A (Shimadzu Corp., Kyoto, Japan), and the amount of the remaining peptide was calculated.
(§2) Therefore, the inventor examined the digestion resistance of peptide in vitro in a 10% fresh mouse serum. The amount of a remaining undigested peptide was quantified by HPLC.

[2] = tested on: serum peptidase
Method: as §1, §2

[3] = tested on: peptidase activity in the serum; assay: Effect of peptidase inhibitor on OVII peptide digestion by mouse serum; type: biochemical; details: inhibitor-containing buffer (FIGS. 22-24)
Description: Given the above-mentioned Examples, the inventor examined the effect of peptidase inhibitor on the peptide digestion to identify the peptidase in the serum.

[4] = tested on: DO11.10 cells; assay: Antigen presentation by F2-IA^d vascular endothelial cells (CD69 expression by DO11.10 cells); type: cell-based, mouse
Method: EL4 cells were first opsonized with RGD peptide. Next, 5 mg/ml OVA protein was loaded on the cytoplasm by osmotic pressure loading. After sufficient washing, 2×10^6 EL4 cells were added to a confluent culture medium of F2-IA^d cells on a 24-well plate (cultured for 2 days in advance in the presence of 500 U/ml rmIFN-γ). As a control, EL4 and EG7 mock-loaded with PBS were RGD-modified in the same manner and used. EL4 and other target cells were added to F2-IA^d, and the cell mixture was cultured for 24 hr. As for the control well wherein F2-IA^d cells were directly loaded with OVAII peptide, the cells were pulsed with peptide for 2 hr at the end of the culture. After removing the non-adherent cells and debris of dead cells, the surface of the adhered F2-IA^d cells was sufficiently washed. In an antigen presentation inhibitory experiment using chloroquine, 100 μM chloroquine was added 30 min before addition of EL4, EL4 loaded with OVA or 0.25 mg/ml OVA protein. Furthermore, F2-IA^d cells were cultured for 3 days in the continuous presence of chloroquine.
Whether the F2-IA^d cells presented the target antigen polypeptide on the cell surface was evaluated by monitoring the expression of CD69 by DO11.10 cells. The antigen-presenting F2-IA^d cells and DO11.10 cells were mixed and centrifuged to contact the cells with one another. After 6 hr and 24 hr, the cells were stained with biotin-labeled anti CD69 mAb (H1.2F3, BD Biosciences), and the expression of CD69 by DO11.10 cells was detected by flow cytometry (stained positive with FITC-labeled KJ1.26 (anti clonotypic TCR mAb)).

[5] = tested on: DO11.10 cells; assay: Growth of CD4 T cells: proliferation of DO11.10 cells by OVII modified peptides (3H-thymidine); type: cell-based, mouse; details: for sensitization activity compared to OVII+ (in words): effect of lysine, FIG. 20
[6] = TBS containing 10% fresh mouse serum; details: 37° C., up to 16 hr
[7] = tested on: EG7 tumor; assay: Antitumor activity by in vivo immunization with OVA-derived peptides (EL4 / EG7 tumor); details: CBF1 mouse, peptide-loaded LPS blast i.p. 3 times; EL4 / EG7 tumor (FIG. 8)
Description: CBF1 mouse was immunized with LPS blast of splenocyte pulsed with either λ repressor peptide ([…]; SEQ ID NO: 39) or OVAII peptide as a Th epitope peptide, and K^b-binding OVA-I peptide, which is a CTL inducing peptide. LPS blast derived from one spleen was pulsed with peptide, and intraperitoneally injected to immunize two mice. The next day of the third immunization, 9×10^6 EL4 cells and 1.2×10^7 EG7 cells were intradermally transplanted in a pair on the back skin of the mice. The tumor size was measured every other day. Immunization was performed once again 2 weeks from the tumor transplantation.
To verify the anti-tumor effect of inducing tumor-specific Th cells in vivo, the inventor compared the immunization protocol that induces 1. CTL alone, 2. CTL and a third party antigen-specific Th cell, and 3. CTL and tumor-specific Th cell. As the antigen presenting cell, LPS blast of spleen cell was used, and the APC loaded with each peptide alone or the mixture of each peptide was injected intraperitoneally 3 times (once per week). On the day of third immunization, 9×10^6 EL4 and 1.2×10^7 EG7 tumor were innoculated on the opposite sides of the back, and the tumor diameter was measured from day 4.

Molecule: CC[C@H](C)[C@H](N)C(=O)N[C@@H](CO)C(=O)N[C@@H](CCC(N)=O)C(=O)N[C@@H](C)C(=O)N[C@H](C(=O)N[C@@H](Cc1c[nH]cn1)C(=O)N[C@@H](C)C(=O)N[C@@H](C)C(=O)N[C@@H](Cc1c[nH]cn1)C(=O)N[C@@H](C)C(=O)N[C@@H](CCC(=O)O)C(=O)N[C@H](C(=O)N[C@@H](CC(N)=O)C(=O)N[C@@H](CCC(=O)O)C(=O)N[C@@H](C)C(=O)N1CCC[C@H]1C(=O)NCCC(=O)O)[C@@H](C)CC)C(C)C [OVIIPβ] (HELM PEPTIDE1{I.S.Q.A.V.H.A.A.H.A.E.I.N.E.A.P.[bAla]}$$$$V2.0; N-terminus and C-terminus assumed)
digestion resistance to serum peptidases (in words) ([1]; 10% fresh mouse serum): the protection effect was further enhanced, and the amount of the peptide remaining 16 hr later increased

protection of peptide from digestion [2]: protects about half of the peptide
Molecule: CC[C@H](C)[C@H](N)C(=O)N[C@@H](CO)C(=O)N[C@@H](CCC(N)=O)C(=O)N[C@@H](C)C(=O)N[C@H](C(=O)N[C@@H](Cc1c[nH]cn1)C(=O)N[C@@H](C)C(=O)N[C@@H](C)C(=O)N[C@@H](Cc1c[nH]cn1)C(=O)N[C@@H](C)C(=O)N[C@@H](CCC(=O)O)C(=O)N[C@H](C(=O)N[C@@H](CC(N)=O)C(=O)N[C@@H](CCC(=O)O)C(=O)N[C@@H](C)C(=O)NCC(=O)NCCC(=O)O)[C@@H](C)CC)C(C)C [OVIIβ] (HELM PEPTIDE1{I.S.Q.A.V.H.A.A.H.A.E.I.N.E.A.G.[bAla]}$$$$V2.0; N-terminus and C-terminus assumed)

digestion resistance to serum peptidases (in words) ([1]; 10% fresh mouse serum): further additional protective effect
Molecule: CC[C@H](C)[C@H](NC(=O)[C@H](CCC(=O)O)NC(=O)[C@H](C)NC(=O)[C@H](Cc1c[nH]cn1)NC(=O)[C@H](C)NC(=O)[C@H](C)NC(=O)[C@H](Cc1c[nH]cn1)NC(=O)[C@@H](NC(=O)[C@H](C)NC(=O)[C@H](CCC(N)=O)NC(=O)[C@H](CO)NC(=O)[C@@H](NC(=O)[C@H](CO)NC(=O)[C@@H]1CCCN1)[C@@H](C)CC)C(C)C)C(=O)N[C@@H](CC(N)=O)C(=O)N[C@@H](CCC(=O)O)C(=O)N[C@@H](C)C(=O)N1CCC[C@H]1C(=O)NCCC(=O)O [POVIIPβ]

level of epitope remaining in the serum compared with POVIIPβ ([1]; mouse, serum): almost the same for both peptides
Molecule: CC[C@H](C)[C@H](NC(=O)[C@H](CCC(=O)O)NC(=O)[C@H](C)NC(=O)[C@H](Cc1c[nH]cn1)NC(=O)[C@H](C)NC(=O)[C@H](C)NC(=O)[C@H](Cc1c[nH]cn1)NC(=O)[C@@H](NC(=O)[C@H](C)NC(=O)[C@H](CCC(N)=O)NC(=O)[C@H](CO)NC(=O)[C@@H](NC(=O)[C@H](CCCCNC(=O)CCCC[C@@H]1SC[C@@H]2NC(=O)N[C@@H]21)NC(=O)[C@H](CO)NC(=O)[C@@H]1CCCN1)[C@@H](C)CC)C(C)C)C(=O)N[C@@H](CC(N)=O)C(=O)N[C@@H](CCC(=O)O)C(=O)N[C@@H](C)C(=O)N[C@@H](CCCCNC(=O)CCCC[C@@H]1SC[C@@H]2NC(=O)N[C@@H]21)C(=O)N1CCC[C@H]1C(=O)NCCC(=O)O [PbOVIIbPβ] (H-PSK(Biotin)ISQAVHAAHAEINEAK(Biotin)P[βAla]-OH; N-terminus and C-terminus assumed)

digestion resistance to serum peptidases (in words) [2]: no digestion resistance
Molecule: CC[C@H](C)[C@H](NC(=O)[C@H](CCC(=O)O)NC(=O)[C@H](C)NC(=O)[C@H](Cc1c[nH]cn1)NC(=O)[C@H](C)NC(=O)[C@H](C)NC(=O)[C@H](Cc1c[nH]cn1)NC(=O)[C@@H](NC(=O)[C@H](C)NC(=O)[C@H](CCC(N)=O)NC(=O)[C@H](CO)NC(=O)[C@@H](NC(=O)[C@H](CCCCNC(=O)CCCC[C@@H]1SC[C@@H]2NC(=O)N[C@@H]21)NC(=O)[C@@H](N)CO)[C@@H](C)CC)C(C)C)C(=O)N[C@@H](CC(N)=O)C(=O)N[C@@H](CCC(=O)O)C(=O)N[C@@H](C)C(=O)N[C@@H](CCCNC(=N)N)C(=O)O [bOVII+] (H-SK(Biotin)ISQAVHAAHAEINEAR-OH; N-terminus and C-terminus assumed)

Molecule: CC(C)C[C@H](NC(=O)[C@@H](O)[C@H](N)Cc1ccccc1)C(=O)O [bestatin]
inhibition of OVII peptide digestion / peptidase activity in serum [3]: about half of the peptidase activity was suppressed

Molecule: CCN(CC)CCCC(C)Nc1ccnc2cc(Cl)ccc12 (centres unmarked) [chloroquine]
antigen presentation of OVA-loaded EL4 by F2-IA^d cells ([4]; 100 μM chloroquine (FIG. 4)): sensitive to chloroquine | presentation of OVA protein by F2-IA^d cells ([4]; 100 μM chloroquine (FIGS. 3, 4)): decreased

Molecule: Ac-ISQAVHAAHAEINEA [ac-OVII]
digestion resistance to serum peptidases (in words) [2]: higher protection effect than the above-mentioned single modification of the C terminal side | sensitization activity / Th inducing activity (in words) ([5]; 10% FCS-DMEM, compared to OVII (FIG. 11)): almost no influence on the sensitization activity; also recorded: no difference from OVII

cleaved bond [6]: Ile-S, major
Molecule: HELM PEPTIDE1{I.S.Q.A.V.H.A.A.H.A.E.I.N.E.A.P.[bAla]}$$$$V2.0 (N-terminus and C-terminus assumed; SMILES CC[C@H](C)[C@H](N)C(=O)N[C@@H](CO)C(=O)N[C@@H](CCC(N)=O)C(=O)N[C@@H](C)C(=O)N[C@H](C(=O)N[C@@H](Cc1c[nH]cn1)C(=O)N[C@@H](C)C(=O)N[C@@H](C)C(=O)N[C@@H](Cc1c[nH]cn1)C(=O)N[C@@H](C)C(=O)N[C@@H](CCC(=O)O)C(=O)N[C@H](C(=O)N[C@@H](CC(N)=O)C(=O)N[C@@H](CCC(=O)O)C(=O)N[C@@H](C)C(=O)N1CCC[C@H]1C(=O)NCCC(=O)O)[C@@H](C)CC)C(C)C)

cleaved bond [6]: Ile-S, major
Molecule: ISQAVHAAHAEINEAPA

protection of peptide from digestion ([1]; 10% fresh mouse serum, within 4 hr): protects about half of the peptide
Molecule: ISQAVHAAHAEINEAPA [OVIIPA]

Molecule: LEDARRLKAIYEKKK [X peptide, third party antigen peptide]
tumor control, Th peptide together with OVA-I [7]: could delay tumor growth as compared to CTL single induction, but the mouse finally died

Molecule: OVA-I: K^b-binding OVA-I peptide, which is a CTL inducing peptide (SIINFEKL; UniProt P01012 258-265, looked up, fragment)
tumor control, CTL-inducing peptide alone [7]: tumor control was only possible to a limited degree

Molecule: PSK^bioISQAVHAAHAEINEARK^bioPβA
fragment found [6]: product which has lost the biotin molecule on the N terminal side, major

Molecule: SKISQAVHAAHAEINEAR [KOVII+]
sensitization activity compared to OVII+ (in words) [5]: no difference in the sensitization activity compared to OVII+

Molecule: SKISQAVHAAHAEINEARK [KOVII+K]
sensitization activity compared to OVII+ (in words) [5]: no difference in the sensitization activity compared to OVII+

cleaved bond [6]: Ser-K, major | fragment found [6]: product missing one biotin
Molecule: SKISQAVHAAHAEINEARK^bioG

cleaved bond [6]: A-Arg, major | fragment found [6]: product missing one biotin
Molecule: SK^bioISQAVHAAHAEINEAR (H-SK(Biotin)ISQAVHAAHAEINEAR-OH; N-terminus and C-terminus assumed; SMILES CC[C@H](C)[C@H](NC(=O)[C@H](CCC(=O)O)NC(=O)[C@H](C)NC(=O)[C@H](Cc1c[nH]cn1)NC(=O)[C@H](C)NC(=O)[C@H](C)NC(=O)[C@H](Cc1c[nH]cn1)NC(=O)[C@@H](NC(=O)[C@H](C)NC(=O)[C@H](CCC(N)=O)NC(=O)[C@H](CO)NC(=O)[C@@H](NC(=O)[C@H](CCCCNC(=O)CCCC[C@@H]1SC[C@@H]2NC(=O)N[C@@H]21)NC(=O)[C@@H](N)CO)[C@@H](C)CC)C(C)C)C(=O)N[C@@H](CC(N)=O)C(=O)N[C@@H](CCC(=O)O)C(=O)N[C@@H](C)C(=O)N[C@@H](CCCNC(=N)N)C(=O)O)

cleaved bond [6]: A-R, major | fragment found [6]: product missing one biotin
Molecule: SK^bioISQAVHAAHAEINEARK^bio

Molecule: SK^bioISQAVHAAHAEINEARK^bio (SK(Biotin)ISQAVHAAHAEINEARK(Biotin)) [bOVII+b]
activity to induce proliferation of DO11.10 Th cell relative to KOVII+ and KOVII+K, respectively ([5]; bOVII+ vs KOVII+, bOVII+b vs KOVII+K (FIG. 20)): about 10 fold | increase in sensitization activity compared to OVIIβ, OVIIPA ([5]; relative to peptides with Pro at second position from C terminal and/or β-Ala at C terminal (OVIIβ, OVIIPA, FIG. 11)): 100 fold
